# In article PMC5866846 (Archives of Toxicology, 2017):
# Columns and labels:
# [1] = Formation of Met E and Tam-Bis from precursors in pooled human liver microsomes with and without NADPH-regenerating system; assay type: in vitro ADME; details: DM-Tam, DDM-Tam, 50 µM, pooled HLM
# Description: The reaction was started by adding a NADPH regenerating system (5 mM MgCl2, 5 mM glucose-6-phosphate, 0.5 mM NADP^+ and 10 U glucose-6-phosphate-dehydrogenase in 100 mM sodium phosphate buffer pH 7.4) to the samples and immediately put in a 37 °C water bath for 30 min. The reaction was stopped with the same volume of acetonitrile (ACN) containing 1% of acetic acid together with the corresponding deuterated internal standards. Regarding incubations with Supersomes™ containing UGTs, 5 µg of protein was incubated with 250 mM MgCl2 and 2.5 ng of alamethicin for 30 min on ice, followed by 10 min at 37 °C in a water bath. […] Metabolites were analyzed by HPLC-ESI-MS/MS.
# Protein was precipitated by the addition of ACN containing 1% of acetic acid and the corresponding deuterated internal standards to the same volume of the sample followed by centrifugation at 20.000 g for 15 min at RT. […] Analytes were separated on a Zorbax Eclipse Plus C18 column (1.8 µm, 100 × 2.1 mm, Agilent technologies) and detected on a 6460 triple quadrupole mass spectrometer (Agilent technologies) in positive ESI MRM mode. Glucuronides of estrogen-like metabolites were detected separately via MS/MS-measurements in negative ESI MRM mode. […]
# [2] = Formation kinetics of Tam-Bis, (Z)- and (E)-Met E in HLM with increasing substrate concentrations; assay type: in vitro ADME, human; details: substrate 1 to 50 µM, Michaelis-Menten
# Description: The reaction was started by adding a NADPH regenerating system (5 mM MgCl2, 5 mM glucose-6-phosphate, 0.5 mM NADP^+ and 10 U glucose-6-phosphate-dehydrogenase in 100 mM sodium phosphate buffer pH 7.4) to the samples and immediately put in a 37 °C water bath for 30 min. The reaction was stopped with the same volume of acetonitrile (ACN) containing 1% of acetic acid together with the corresponding deuterated internal standards. Regarding incubations with Supersomes™ containing UGTs, 5 µg of protein was incubated with 250 mM MgCl2 and 2.5 ng of alamethicin for 30 min on ice, followed by 10 min at 37 °C in a water bath. Subsequently, the Supersomes™ were incubated with 10 µM of substrates (Tam-Bis, (E)- and (Z)-Met E) and the glucuronidation was started by addition of 10 mM of uridine 5′-diphospho-glucuronic acid to the samples in a water bath at 37 °C for 30 min. The reaction was stopped as described above. Metabolites were analyzed by HPLC-ESI-MS/MS.
# For the assessment of formation kinetics of Tam-Bis, (E)- and (Z)-Metabolite E, HLM were incubated with increasing substrate concentrations ranging from 1 to 50 µM as described above. As control for each concentration a sample without NADPH-regenerating system was prepared. […]
# [3] = tested on: single CYP isoenzymes (Supersomes); experiment: Formation of estrogen-like metabolites in Supersomes specific for single CYP isoenzymes; assay type: in vitro ADME; details: 50 µM precursors
# Description: Supersomes™ were obtained from Corning Incorporated, Wiesbaden, Germany, and were specific for CYP isoenzymes CYP1A1, 1A2, 2A6, 2B6, 2C8, 2C9, 2C19, 2D6, 3A4, 3A5 and 19A1. All Supersomes™ contained oxidoreductase. Cytochrome b5 was present in the Supersomes™ of CYP2A6, 2B6, 2C8, 2C9, 3A4 and 3A5. UDP-glucuronosyltransferases (UGT)containing Supersomes™ were specific for the following isoenzymes: 1A1, 1A2, 1A3, 1A4, 1A6, 1A7, 1A8, 1A9, 1A10, 2B4, 2B7, 2B10, 2B15 and 2B17.
# The reaction was started by adding a NADPH regenerating system (5 mM MgCl2, 5 mM glucose-6-phosphate, 0.5 mM NADP^+ and 10 U glucose-6-phosphate-dehydrogenase in 100 mM sodium phosphate buffer pH 7.4) to the samples and immediately put in a 37 °C water bath for 30 min. The reaction was stopped with the same volume of acetonitrile (ACN) containing 1% of acetic acid together with the corresponding deuterated internal standards. […] Metabolites were analyzed by HPLC-ESI-MS/MS.
# Protein was precipitated by the addition of ACN containing 1% of acetic acid and the corresponding deuterated internal standards to the same volume of the sample followed by centrifugation at 20.000 g for 15 min at RT. […] Glucuronides of estrogen-like metabolites were detected separately via MS/MS-measurements in negative ESI MRM mode.
# [4] = tested on: upcyte hepatocytes 653-03 and 653-03 2D6; experiment: Tam metabolism in upcyte hepatocytes, cell strain not distinguished; assay type: in vitro ADME, human; details: 1 µM Tam, all time points
# Description: The medium was replaced every 2–3 days. […].
# The culture medium was collected after 24, 48, 72, 96 and 144 h followed by metabolite measurements using HPLC-ESI-MS/MS.
# Protein was precipitated by the addition of ACN containing 1% of acetic acid and the corresponding deuterated internal standards to the same volume of the sample followed by centrifugation at 20.000 g for 15 min at RT. […] Analytes were separated on a Zorbax Eclipse Plus C18 column (1.8 µm, 100 × 2.1 mm, Agilent technologies) and detected on a 6460 triple quadrupole mass spectrometer (Agilent technologies) in positive ESI MRM mode. Glucuronides of estrogen-like metabolites were detected separately via MS/MS-measurements in negative ESI MRM mode.
# […]. […] […].
# [5] = tested on: CYP1A2; experiment: CYP1A2 activity in upcyte hepatocytes after treatment (probe substrate cocktail); details: human, EC50 of induction of CYP1A2 activity, 50 pM to 5 µM
# Description: (§1) Cells were cultivated in hepatocyte culture medium at 37 °C and 5 °% CO2 in a humidified incubator. Before starting experiments, cells were cultivated in hepatocyte culture medium containing 0.5% (v/v) DMSO (Preculture medium) for 5 days (density of 0.8 × 10^4 cells/cm^2) and were subcultivated in high-performance medium containing 0.1% (v/v) DMSO (Metabolism conditioning medium) for 3–5 days (density of 1.6 × 10^5 cells/cm^2, confluence). The medium was replaced every 2–3 days.
# (§2) In HLM and supersome™ incubations the formation rate is given as nmol µg^−1 min^−1 and fmol pmol^−1 min^−1, respectively, and was calculated as the mean ± SD. […] The intrinsic Clearance (Clint) was given as Vmax/Km ratio. […] Activity of CYP enzymes in induction assays is given as the fold-change (mean ± SD) compared to the corresponding DMSO-treated control. […] Gene expression patterns of treated cells are given as fold-change compared to the corresponding DMSO-treated control samples, as described above. […] In induction and inhibition experiments corresponding EC50 and IC50 values were calculated by nonlinear regression. In all experiments a level of probability (p) ≤ 0.05 for statistical testing was considered significant.
# (§3) As control 0.05 % DMSO was used. The basal CYP activity and induction of CYP activity compared to the DMSO control were measured via HPLC-ESI-MS/MS.
# [6] = tested on: CYP2B6; experiment: CYP2B6 activity in upcyte hepatocytes after treatment (probe substrate cocktail)
# Description: as §1, §2, §3
# [7] = tested on: CYP3A4; experiment: CYP3A4 activity in upcyte hepatocytes after treatment (probe substrate cocktail)
# Description: as §1, §2, §3
# [8] = tested on: CYP3A4 gene expression; experiment: CYP3A4 gene expression in upcyte hepatocytes (Fluidigm RT-PCR)
# Text: (§4) Total RNA was isolated from cells using the Direct-zol™ RNA MiniPrep kit (Zymo Research Corp., Irvine, California). cDNA was synthesized using TaqMan Reverse Transcription Reagents (Life technologies, Applera GmbH, Darmstadt, Germany) and the expression of 25 genes representative of phase I and phase II drug metabolism and transport was quantified by Fluidigm’s BioMark HD high-throughput quantitative chip platform (Fluidigm Corporation, San Francisco, USA). For relative gene expression analysis, the delta-delta-Ct (ΔΔCt) method was used: the Ct values of the target mRNA were first normalized to those of the endogenous control glyceraldehyde-3-phosphate dehydrogenase (GAPDH) followed by dividing values of experimental samples by their corresponding DMSO-treated controls to calculate the x-fold changes of mRNA expression.
# as §2, §3
# [9] = tested on: estrogen receptor; parameters: method as in Johnson et al. [1989]; Murphy et al. [1990]; details: in vitro, estrogen-dependent breast cancer cell lines; ref Johnson et al. [1989]; Murphy et al. [1990]; cited from earlier work
# [10] = target: T1, CYP2C8 (Homo sapiens, UniProt P10632); experiment: CYP2C8 activity in upcyte hepatocytes after treatment (probe substrate cocktail); assay type: cell-based; parameters: host or cells: upcyte hepatocytes 653-03 and 653-03 #138 (653-03 2D6); details: human, probe amodiaquine (5 µM), upcyte hepatocytes, 50 pM to 5 µM, read-out: EC50 of induction of CYP2C8 activity
# T1 sequence (P10632 1-490): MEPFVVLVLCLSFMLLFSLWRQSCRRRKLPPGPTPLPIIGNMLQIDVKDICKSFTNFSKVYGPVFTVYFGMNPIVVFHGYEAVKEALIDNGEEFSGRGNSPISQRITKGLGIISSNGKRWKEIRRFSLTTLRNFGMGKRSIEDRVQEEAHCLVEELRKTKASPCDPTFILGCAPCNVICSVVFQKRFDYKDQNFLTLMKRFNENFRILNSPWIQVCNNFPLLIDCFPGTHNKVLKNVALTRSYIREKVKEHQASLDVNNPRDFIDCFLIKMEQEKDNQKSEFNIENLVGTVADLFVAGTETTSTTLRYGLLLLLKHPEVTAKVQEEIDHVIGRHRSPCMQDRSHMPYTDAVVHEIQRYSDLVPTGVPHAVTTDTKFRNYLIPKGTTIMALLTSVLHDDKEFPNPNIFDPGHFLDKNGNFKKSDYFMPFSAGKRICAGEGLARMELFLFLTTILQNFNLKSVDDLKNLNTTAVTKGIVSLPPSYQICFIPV
# Description: as §1, §2, §3
# [11] = target: CYP2C9 (Homo sapiens, UniProt P11712); experiment: CYP2C9 activity in upcyte hepatocytes after treatment (probe substrate cocktail); assay type: cell-based; parameters: host or cells: upcyte hepatocytes 653-03 and 653-03 #138 (653-03 2D6); details: 5 µM, 72 h
# Description: as §1, §2, §3
# [12] = target: CYP2C19 (Homo sapiens, UniProt P33261); experiment: CYP2C19 activity in upcyte hepatocytes after treatment (probe substrate cocktail); assay type: cell-based; parameters: host or cells: upcyte hepatocytes 653-03 and 653-03 #138 (653-03 2D6); details: human, probe S-mephenytoin (100 µM), upcyte hepatocytes, 50 pM to 5 µM, read-out: EC50 of induction of CYP2C19 activity
# Description: as §1, §2, §3
# [13] = tested on: SLC22A7 gene expression; experiment: SLC22A7 gene expression in upcyte hepatocytes (Fluidigm RT-PCR); assay type: cell-based, human; details: phenobarbital 2 mM, 72 h
# Text: as §4
# (§5) In HLM and supersome™ incubations the formation rate is given as nmol µg^−1 min^−1 and fmol pmol^−1 min^−1, respectively, and was calculated as the mean ± SD. […] The intrinsic Clearance (Clint) was given as Vmax/Km ratio. […] In induction and inhibition experiments corresponding EC50 and IC50 values were calculated by nonlinear regression. […]
# as §3
# [14] = tested on: CYP2C8 gene expression; experiment: CYP2C8 gene expression in upcyte hepatocytes (Fluidigm RT-PCR); assay type: cell-based, human; details: phenobarbital 2 mM, 72 h; 'up to' = strongest decrease
# Text: (§6) Differences between induced and control samples were compared using Welch’s t-test (GraphPad Prism, version 5.04), when the fold-change was considered biologically relevant (1.5-fold increase or decrease in fold-changes) and corrected for multiple testing according to Bonferroni. […] An unpaired t-test assuming unequal variances was used for testing of differences in the expression patterns, when the fold-change was considered biologically relevant (1.5-fold increase or decrease in fold-changes) and corrected using Bonferroni adjustments.
# (§7) As control 0.05 % DMSO was used.
# [15] = tested on: CYP2C19 gene expression; experiment: CYP2C19 gene expression in upcyte hepatocytes (Fluidigm RT-PCR); assay type: cell-based, human; details: phenobarbital 2 mM, 72 h
# Text: as §6, §7
# [16] = tested on: CYP2E1 gene expression; experiment: CYP2E1 gene expression in upcyte hepatocytes (Fluidigm RT-PCR); assay type: cell-based, human; details: phenobarbital 2 mM, 72 h; 'up to' = strongest decrease
# Text: as §6, §7
# [17] = tested on: SULT1B1 gene expression; experiment: SULT1B1 gene expression in upcyte hepatocytes (Fluidigm RT-PCR); assay type: cell-based, human; details: phenobarbital 2 mM, 72 h; 'up to' = strongest decrease
# [18] = tested on: UGT1A1 gene expression; experiment: UGT1A1 gene expression in upcyte hepatocytes (Fluidigm RT-PCR); assay type: cell-based, human; details: phenobarbital 2 mM, 72 h, both strains
# Text: as §4, §5, §3
# [19] = tested on: SLCO1B1 gene expression; experiment: SLCO1B1 gene expression in upcyte hepatocytes (Fluidigm RT-PCR); assay type: cell-based, human; details: phenobarbital 2 mM, 72 h
# Text: as §4, §5, §3
# [20] = tested on: NAT1 gene expression; experiment: NAT1 gene expression in upcyte hepatocytes (Fluidigm RT-PCR); assay type: cell-based, human; details: phenobarbital 2 mM, 72 h; 'up to' = strongest decrease
# [21] = tested on: CYP3A4; details: hepatocytes
# Sequence of CYP2C19 (P33261 whole entry): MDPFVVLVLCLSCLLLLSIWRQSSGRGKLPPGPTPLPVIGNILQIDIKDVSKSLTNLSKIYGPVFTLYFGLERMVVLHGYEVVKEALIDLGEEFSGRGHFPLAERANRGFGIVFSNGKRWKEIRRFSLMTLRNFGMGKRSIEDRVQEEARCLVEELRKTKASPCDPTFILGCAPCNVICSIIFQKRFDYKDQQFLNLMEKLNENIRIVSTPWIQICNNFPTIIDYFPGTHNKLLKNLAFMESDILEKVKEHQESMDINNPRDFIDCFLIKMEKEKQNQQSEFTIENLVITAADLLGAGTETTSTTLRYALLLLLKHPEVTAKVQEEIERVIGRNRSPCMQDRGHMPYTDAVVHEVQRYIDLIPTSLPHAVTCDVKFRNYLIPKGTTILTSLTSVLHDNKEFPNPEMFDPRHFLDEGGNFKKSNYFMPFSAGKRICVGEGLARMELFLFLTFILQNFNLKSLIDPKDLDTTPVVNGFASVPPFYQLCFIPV
# Sequence of CYP2C9 (P11712 whole entry): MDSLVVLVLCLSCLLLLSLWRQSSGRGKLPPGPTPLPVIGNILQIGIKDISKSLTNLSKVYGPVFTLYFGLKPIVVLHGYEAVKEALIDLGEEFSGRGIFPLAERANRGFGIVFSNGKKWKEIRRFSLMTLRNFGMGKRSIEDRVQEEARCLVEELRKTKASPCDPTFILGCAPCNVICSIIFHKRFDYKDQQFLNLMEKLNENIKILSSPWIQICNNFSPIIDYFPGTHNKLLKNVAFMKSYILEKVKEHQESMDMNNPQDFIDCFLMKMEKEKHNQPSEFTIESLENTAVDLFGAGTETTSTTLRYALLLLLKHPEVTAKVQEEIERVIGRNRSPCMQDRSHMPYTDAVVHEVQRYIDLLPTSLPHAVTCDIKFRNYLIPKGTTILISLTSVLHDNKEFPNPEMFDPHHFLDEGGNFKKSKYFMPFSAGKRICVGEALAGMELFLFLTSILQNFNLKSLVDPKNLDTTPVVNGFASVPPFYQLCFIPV
smiles,measurement,setting,value
"CCC(=C(c1ccccc1)c1ccc(O)cc1)c1ccccc1 [(E)-Met E, 4-[1,2-diphenylbut-1-en-1-yl]phenol]",formation rate of the (E)-isomer compared to (Z)-Met E,[1],approximately 10%
same,"V max, Bisphenol formation",[2],8.1 pmol/mg/min
same,Km,"[2]; read-out: Km, Bisphenol formation",10.4 µM
same,formation rates lower than those of the (Z)-isomer,[3],approximately 10 times
same,concentration of the (E)-isomer relative to (Z)-Met E,[4],about 10%
same,EC50 at 72 h,[5],> 5 µM
same,EC50 at 72 h,"[6]; human, probe bupropion (25 µM)",> 5 µM
same,induction of CYP3A4 activity compared to DMSO control,"[7]; 5 µM, 72 h, parental and derived cell line",weakly induced
same,EC50 at 72 h,"[7]; human, probe atorvastatin (35 µM), EC50 of induction of CYP3A4 activity, upcyte hepatocytes, 72 h, 50 pM to 5 µM",0.277 µM
same,"CYP3A4 gene expression, induction vs DMSO control","[8]; 5 µM, 72 h, both cell strains",up to 5.6 fold
same,agonism regarding estrogen-regulated mRNA expression,[9],full agonists
same,EC50 at 72 h,[10],> 5 µM
same,induction of CYP2C9 activity,[11],weakly induced
same,EC50 at 72 h,[12],> 5 µM
"CCC1(c2ccccc2)C(=O)NC(=O)NC1=O [PB, phenobarbital]",induction of CYP2B6 activity,"[6]; phenobarbital 2 mM, 72 h, both cell lines",induced
same,induction of CYP3A4 activity,[7]; hepatocytes,induced
same,"CYP3A4 gene expression, induction","[8]; human, hepatocytes",≤ 9 fold
same,SLC22A7 gene expression,[13],down regulated
same,"CYP2C8 gene expression, decreased to x-fold of control",[14],up to 0.3 fold
same,"CYP2C19 gene expression, induction",[15],up to 1.5 fold
same,"CYP2E1 gene expression, decreased to x-fold of control",[16],≤ 0.2 fold
same,"SULT1B1 gene expression, down regulated to x-fold of control",[17],up to 0.5 fold
same,"UGT1A1 gene expression, induction",[18],1.8 fold
same,"SLCO1B1 gene expression, induction",[19],up to 2.9 fold
same,"NAT1 gene expression, down regulated to x-fold of control",[20],up to 0.5 fold
same,protein expression of CYP3A4 (Western blot),[21],induced
